We go through 18 substances from the OligoGym collection.

HELM strings list units from the 5' end as sugar, base in round brackets, then linkage (d deoxyribose, r ribose, m 2'-O-methyl, p phosphodiester). Strings are as the collection lists them; they lack the last nucleoside at the 3' end of the tested compound. [moe] = 2'-O-(2-methoxyethyl) (MOE); [sp] = phosphorothioate linkage; [m5C] = 5-methylcytosine

The data set concerns the target ATXN2. Briefly: mouse, dose not given. The conditions noted are these: ASO.
Turning to “RNA1{[moe](G)[sp].[moe](G)p.[moe](T)p.[moe](A)p.[moe](A)p.d([m5C])[sp].d(A)[sp].d(G)[sp].d([m5C])[sp].d(T)[sp].d([m5C])[sp].d(T)[sp].d(G)[sp].d(T)[sp].d(T)[sp].[moe]([m5C])p.[moe](G)p.[moe](A)[sp].[moe](T)}$$$$ (last 3' nucleoside missing)”, the 3 h FOB score stood at 7 score 0-7.

The substance “RNA1{[moe](G)[sp].[moe](G)p.[moe](T)p.[moe](A)p.[moe]([m5C])p.d(A)[sp].d([m5C])[sp].d(A)[sp].d(G)[sp].d(T)[sp].d(T)[sp].d(T)[sp].d([m5C])[sp].d(A)[sp].d([m5C])[sp].[moe](T)p.[moe](A)p.[moe](G)[sp].[moe](G)}$$$$ (last 3' nucleoside missing)” had a 3 h FOB score of 4.75 score 0-7. Take “RNA1{[moe](G)[sp].[moe](G)p.[moe](T)p.[moe](G)p.[moe](A)p.d(T)[sp].d(G)[sp].d(T)[sp].d(T)[sp].d(T)[sp].d([m5C])[sp].d(A)[sp].d(T)[sp].d(T)[sp].d(G)[sp].[moe](G)p.[moe](G)p.[moe](T)[sp].[moe](T)}$$$$ (last 3' nucleoside missing)”: the 3 h FOB score worked out at 4.5 score 0-7.

With “RNA1{[moe](G)[sp].[moe](G)p.[moe](T)p.[moe](G)p.[moe](G)[sp].d(T)[sp].d(G)[sp].d(T)[sp].d(G)[sp].d([m5C])[sp].d(G)[sp].d([m5C])[sp].d(A)[sp].[moe](T)p.[moe](G)p.[moe](T)[sp].[moe](A)}$$$$ (last 3' nucleoside missing)”, the 3 h FOB score is 7 score 0-7.

Substance “RNA1{[moe](G)[sp].[moe](G)p.[moe](T)p.[moe](G)p.[moe](G)p.d(T)[sp].d(G)[sp].d(T)[sp].d(G)[sp].d([m5C])[sp].d(G)[sp].d([m5C])[sp].d(A)[sp].d(T)[sp].d(G)[sp].[moe](T)p.[moe](A)p.[moe](G)[sp].[moe](A)}$$$$ (last 3' nucleoside missing)” came in with a 3 h FOB score of 7 score 0-7.

In the case of “RNA1{[moe](G)[sp].[moe](G)p.[moe](T)p.[moe]([m5C])p.[moe](A)p.d(A)[sp].d(G)[sp].d(G)[sp].d(T)[sp].d([m5C])[sp].d(A)[sp].d(A)[sp].d(T)[sp].d(A)[sp].d([m5C])[sp].[moe](T)p.[moe](T)p.[moe](T)[sp].[moe](T)}$$$$ (last 3' nucleoside missing)”, the 3 h FOB score came to 2 score 0-7. “RNA1{[moe](G)[sp].[moe](G)p.[moe]([m5C])p.[moe](T)p.[moe](G)p.d(G)[sp].d(A)[sp].d(A)[sp].d(G)[sp].d(T)[sp].d([m5C])[sp].d(T)[sp].d(G)[sp].d(A)[sp].d(A)[sp].[moe]([m5C])p.[moe]([m5C])p.[moe]([m5C])[sp].[moe]([m5C])}$$$$ (last 3' nucleoside missing)”: the 3 h FOB score worked out at 6 score 0-7. “RNA1{[moe](G)[sp].[moe](T)[sp].[moe](G)[sp].[moe](G)[sp].[moe](G)[sp].d(A)[sp].d(T)[sp].d(A)[sp].d([m5C])[sp].d(A)[sp].d(A)[sp].d(A)[sp].d(T)[sp].d(T)[sp].d([m5C])[sp].[moe](T)[sp].[moe](A)[sp].[moe](G)[sp].[moe](G)}$$$$ (last 3' nucleoside missing)” had a 3 h FOB score of 7 score 0-7.

“RNA1{[moe](G)[sp].[moe](T)p.[moe](A)p.[moe](A)p.[moe]([m5C])p.d(A)[sp].d(A)[sp].d(T)[sp].d(T)[sp].d(G)[sp].d(T)[sp].d(A)[sp].d(A)[sp].d(A)[sp].d(T)[sp].[moe]([m5C])p.[moe]([m5C])p.[moe](A)[sp].[moe](T)}$$$$ (last 3' nucleoside missing)” yielded a 3 h FOB score of 0.75 score 0-7. “RNA1{[moe](G)[sp].[moe](T)p.[moe](A)p.[moe](G)p.[moe](T)p.d(G)[sp].d(T)[sp].d(T)[sp].d(T)[sp].d(G)[sp].d(G)[sp].d(G)[sp].d(A)[sp].d(T)[sp].d(G)[sp].[moe]([m5C])p.[moe](T)p.[moe](T)[sp].[moe]([m5C])}$$$$ (last 3' nucleoside missing)” showed a 3 h FOB score of 6 score 0-7.

“RNA1{[moe](G)[sp].[moe](T)p.[moe](A)p.[moe](T)p.[moe](G)[sp].d(T)[sp].d(T)[sp].d(T)[sp].d(G)[sp].d(T)[sp].d([m5C])[sp].d(T)[sp].d(G)[sp].[moe](T)p.[moe]([m5C])p.[moe](T)[sp].[moe](T)}$$$$ (last 3' nucleoside missing)”: the 3 h FOB score came out at 6.5 score 0-7. For the substance “RNA1{[moe](G)[sp].[moe](T)p.[moe](A)p.[moe](T)p.[moe](G)p.d(T)[sp].d(T)[sp].d(T)[sp].d(G)[sp].d(T)[sp].d([m5C])[sp].d(T)[sp].d(G)[sp].d(T)[sp].d([m5C])[sp].[moe](T)p.[moe](T)p.[moe](A)[sp].[moe](T)}$$$$ (last 3' nucleoside missing)”, the 3 h FOB score was determined as 6 score 0-7. For the substance “RNA1{[moe](G)[sp].[moe](T)p.[moe](A)p.[moe](T)p.[moe](T)p.d(T)[sp].d(T)[sp].d(T)[sp].d([m5C])[sp].d(T)[sp].d(T)[sp].d([m5C])[sp].d([m5C])[sp].d(T)[sp].d([m5C])[sp].[moe](A)p.[moe]([m5C])p.[moe](T)[sp].[moe]([m5C])}$$$$ (last 3' nucleoside missing)”, the 3 h FOB score came out at 3.25 score 0-7. The figure for “RNA1{[moe](G)[sp].[moe](T)p.[moe](A)p.[moe](T)p.[moe]([m5C])p.d(A)[sp].d(T)[sp].d(A)[sp].d(T)[sp].d(A)[sp].d(T)[sp].d(T)[sp].d(T)[sp].d([m5C])[sp].d(T)[sp].[moe]([m5C])p.[moe](A)p.[moe](G)[sp].[moe]([m5C])}$$$$ (last 3' nucleoside missing)” is 2.25 score 0-7. Substance “RNA1{[moe](G)[sp].[moe](T)p.[moe](A)p.[moe]([m5C])p.[moe](A)p.d(T)[sp].d(T)[sp].d(T)[sp].d(T)[sp].d(A)[sp].d(A)[sp].d([m5C])[sp].d([m5C])[sp].d([m5C])[sp].d(T)[sp].[moe](T)p.[moe](T)p.[moe](G)[sp].[moe](A)}$$$$ (last 3' nucleoside missing)” had a 3 h FOB score of 2.5 score 0-7. Under “RNA1{[moe](G)[sp].[moe](T)p.[moe](A)p.[moe]([m5C])p.[moe](A)p.d([m5C])[sp].d(A)[sp].d(G)[sp].d(T)[sp].d(T)[sp].d(T)[sp].d([m5C])[sp].d(A)[sp].d([m5C])[sp].d(T)[sp].[moe](A)p.[moe](G)p.[moe](G)[sp].[moe](T)}$$$$ (last 3' nucleoside missing)” stands 3 score 0-7; under “RNA1{[moe](G)[sp].[moe](T)p.[moe](A)p.[moe]([m5C])p.[moe](T)[sp].d(T)[sp].d(T)[sp].d(T)[sp].d([m5C])[sp].d(T)[sp].d([m5C])[sp].d(A)[sp].d(T)[sp].[moe](G)p.[moe](T)p.[moe](G)[sp].[moe]([m5C])}$$$$ (last 3' nucleoside missing)”, 1.25 score 0-7.

As to “RNA1{[moe](G)[sp].[moe](T)p.[moe](A)p.[moe]([m5C])p.[moe](T)[sp].d(T)[sp].d([m5C])[sp].d(A)[sp].d([m5C])[sp].d(A)[sp].d(T)[sp].d(T)[sp].d(T)[sp].[moe](G)p.[moe](G)p.[moe](A)[sp].[moe](G)}$$$$ (last 3' nucleoside missing)”, the 3 h FOB score is 1 score 0-7.
